In BindingDB's records for doi:10.1016/j.chembiol.2004.12.010 (National Institutes of Health, 2005) one finds Ki and EC50 data, which are given here for 16 molecules.

“And” between values parts separate entries of the source, which are not always exact repeats. Equal values may be shown once. Where only a bound is given, the exact number is not on record here.

Common to all, as to assay: Binding Assay
Test [1] deals with T1, Adenosine receptor A2a (Homo sapiens, UniProt P29274). An excerpt:
(§1) Binding affinity of ligand at human adenosine receptors expressed in CHO cell.

The next test concerns the target T2, Adenosine receptor A3 (Homo sapiens, UniProt P0DMS8).
T2 sequence (P0DMS8 whole entry): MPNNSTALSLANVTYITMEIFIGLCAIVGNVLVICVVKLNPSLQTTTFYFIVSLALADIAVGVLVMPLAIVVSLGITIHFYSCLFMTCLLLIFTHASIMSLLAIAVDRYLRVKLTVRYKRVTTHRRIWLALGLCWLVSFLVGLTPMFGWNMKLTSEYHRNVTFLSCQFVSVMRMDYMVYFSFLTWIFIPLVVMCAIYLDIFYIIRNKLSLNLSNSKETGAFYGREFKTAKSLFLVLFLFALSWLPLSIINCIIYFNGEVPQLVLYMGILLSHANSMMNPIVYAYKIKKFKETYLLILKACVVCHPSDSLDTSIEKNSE
Excerpt: as §1

Another test addresses T3, Adenosine receptor A1 (Homo sapiens, UniProt P30542).
T3 sequence (P30542 whole entry): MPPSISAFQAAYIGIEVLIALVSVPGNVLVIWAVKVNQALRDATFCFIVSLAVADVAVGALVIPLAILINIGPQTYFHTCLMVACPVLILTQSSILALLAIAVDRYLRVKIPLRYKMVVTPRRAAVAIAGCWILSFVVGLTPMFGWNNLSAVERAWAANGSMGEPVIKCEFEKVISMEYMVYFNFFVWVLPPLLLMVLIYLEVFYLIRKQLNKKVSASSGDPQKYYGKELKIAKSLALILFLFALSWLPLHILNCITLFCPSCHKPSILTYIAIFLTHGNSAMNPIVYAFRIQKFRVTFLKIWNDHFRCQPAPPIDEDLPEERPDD
Excerpt: as §1

The target of another test is T4, Adenosine receptor A2b (Homo sapiens, UniProt P29275).
T4 sequence (P29275 whole entry): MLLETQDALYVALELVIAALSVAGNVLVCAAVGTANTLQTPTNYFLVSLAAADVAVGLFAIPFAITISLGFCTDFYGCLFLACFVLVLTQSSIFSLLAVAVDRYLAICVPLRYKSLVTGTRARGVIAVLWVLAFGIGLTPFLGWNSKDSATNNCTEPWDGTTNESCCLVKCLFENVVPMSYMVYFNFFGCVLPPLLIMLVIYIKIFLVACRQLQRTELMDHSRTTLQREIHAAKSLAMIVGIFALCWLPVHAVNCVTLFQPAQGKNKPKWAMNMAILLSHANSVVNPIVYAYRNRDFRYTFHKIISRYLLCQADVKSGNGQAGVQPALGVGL
Excerpt: as §1

Test [2] deals with T1, Adenosine receptor A2a. To be noted: pH 7.4; 25 °C. The text has this: Binding affinity of ligand at WT and mutant human A2A ARs expressed in COS7 cell.

T1 sequence (P29274 whole entry): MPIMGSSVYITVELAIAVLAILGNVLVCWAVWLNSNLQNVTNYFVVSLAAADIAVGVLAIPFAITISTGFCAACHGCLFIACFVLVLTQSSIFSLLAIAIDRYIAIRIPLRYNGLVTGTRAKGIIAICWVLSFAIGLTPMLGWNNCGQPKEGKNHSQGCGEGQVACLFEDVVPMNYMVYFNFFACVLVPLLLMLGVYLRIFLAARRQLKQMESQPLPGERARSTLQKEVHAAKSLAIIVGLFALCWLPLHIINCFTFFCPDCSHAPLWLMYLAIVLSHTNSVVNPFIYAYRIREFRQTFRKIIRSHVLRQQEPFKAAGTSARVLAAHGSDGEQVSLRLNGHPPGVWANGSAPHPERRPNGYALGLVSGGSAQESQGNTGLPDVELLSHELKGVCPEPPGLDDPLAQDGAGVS

Usually Ki stands for a dissociation constant, usually derived from enzyme kinetics or from competition with a known ligand. For the molecule `Cc1ccccc1CNc1ncnc2c1ncn2[C@@H]1O[C@H](CO)[C@@H](O)[C@H]1O` [Adenosine analog, 16], the Ki at Adenosine receptor A2a [1] was 0.764 µM; at Adenosine receptor A3, 0.0472 µM; on Adenosine receptor A1, 0.0393 µM.
As usually defined, the EC50 is the concentration giving half of the maximal effect. The low end stands for higher potency in that assay, the high end for lower potency in that assay. For `CCNC(=O)[C@H]1O[C@@H](n2cnc3c(NCc4ccccc4C)ncnc32)[C@H](O)[C@@H]1O` [Adenosine analog, 13], the figures for the Ki on Adenosine receptor A2a [1], at Adenosine receptor A3 and on Adenosine receptor A1 were 5.43 µM, 0.0788 µM and 0.106 µM, respectively. The EC50 on Adenosine receptor A2b is more than 1 µM.
Regarding `Cc1ccccc1CNc1ncnc2c1ncn2[C@@H]1O[C@H](C(=O)NN)[C@@H](O)[C@H]1O` [Adenosine analog, 12], the Ki at Adenosine receptor A2a [1] was more than 10 µM; at Adenosine receptor A3, 0.394 µM; at Adenosine receptor A1, more than 10 µM. On Adenosine receptor A2b, the half-maximal effective concentration (EC50) was more than 100 µM.
As to `NCCCCCNC(=O)[C@H]1O[C@@H](n2cnc3c(N)ncnc32)[C@H](O)[C@@H]1O` [Adenosine analog, 10], the Ki on Adenosine receptor A2a [2] was > 100 µM and 124 µM; at Adenosine receptor A2a [1] it was more than 100 µM; at Adenosine receptor A3, more than 100 µM; at Adenosine receptor A1, more than 100 µM. The EC50 at Adenosine receptor A2b is more than 10 µM.
On Adenosine receptor A2b, `NCCNC(=O)[C@H]1O[C@@H](n2cnc3c(N)ncnc32)[C@H](O)[C@@H]1O` [5'-N-[(2-AMINO)ETHYL CARBOXAMIDO] ADENOSINE] registered an EC50 of 15.6 µM. This molecule had an inhibition constant (Ki) on Adenosine receptor A1 of 0.245 µM.
As for `CNc1nc(N)nc2c1ncn2[C@@H]1O[C@H](CO)[C@@H](O)[C@H]1O` [Adenosine analog, 17], the Ki on Adenosine receptor A2a [2] is more than 100 µM; on Adenosine receptor A2a [1] it was more than 10 µM; at Adenosine receptor A3, 0.039 µM; on Adenosine receptor A1, 0.484 µM. At Adenosine receptor A2b, this molecule registered an EC50 of more than 10 µM.
As for `CCNC(=O)[C@H]1O[C@@H](n2cnc3c(N=C(N)N)ncnc32)[C@H](O)[C@@H]1O`, the inhibition constant Ki was 4.51 µM and 5.68 µM and 0.773 µM and 1.14 µM on Adenosine receptor A2a [2]; 0.628 µM at Adenosine receptor A2a [1]; 0.0051 µM at Adenosine receptor A3; 0.007 µM on Adenosine receptor A1. Further, the EC50 at Adenosine receptor A2b was determined as 0.0545 µM.
As to `Cc1ccccc1CNc1ncnc2c1ncn2[C@@H]1O[C@H](C(=O)NCCO)[C@@H](O)[C@H]1O` [Adenosine analog, 15], the Ki is more than 10 µM on Adenosine receptor A2a [1], 1.64 µM at Adenosine receptor A3 and 0.368 µM on Adenosine receptor A1. On Adenosine receptor A2b, this molecule had an EC50 of 3.72 µM.
Taken in the same sequence, the figures for `NNC(=O)[C@H]1O[C@@H](n2cnc3c(N)ncnc32)[C@H](O)[C@@H]1O` were 2.23 µM, 0.378 µM, 0.171 µM and 12 µM.
For `CNc1nc(C(=N)N)nc2c1ncn2[C@@H]1O[C@H](CO)[C@@H](O)[C@H]1O` [Adenosine analog, 19], the Ki on Adenosine receptor A2a [2] was more than 100 µM; on Adenosine receptor A2a [1] it was more than 10 µM; at Adenosine receptor A3, 2.73 µM; on Adenosine receptor A1, more than 10 µM. The molecule further yielded an EC50 at Adenosine receptor A2b of more than 10 µM.
As for `CNc1nc(CN)nc2c1ncn2[C@@H]1O[C@H](CO)[C@@H](O)[C@H]1O` [Adenosine analog, 18], the Ki on Adenosine receptor A2a [2] is more than 100 µM; on Adenosine receptor A2a [1] it was more than 10 µM; at Adenosine receptor A3 it was 0.719 µM; on Adenosine receptor A1 it was more than 10 µM. The EC50 on Adenosine receptor A2b was more than 10 µM.
For `Nc1ncnc2c1ncn2[C@@H]1O[C@H](C(=O)NCCO)[C@@H](O)[C@H]1O` [Adenosine analog, 11], the EC50 at Adenosine receptor A2b worked out at 0.942 µM.
Regarding `NCCCCNC(=O)[C@H]1O[C@@H](n2cnc3c(N)ncnc32)[C@H](O)[C@@H]1O` [Adenosine analog, 9], the Ki at Adenosine receptor A2a [2] is > 100 µM and 55.2 µM and 48.1 µM; on Adenosine receptor A2a [1], more than 100 µM; on Adenosine receptor A3, more than 10 µM; at Adenosine receptor A1, more than 100 µM. The molecule further showed an EC50 on Adenosine receptor A2b of more than 10 µM.
As to `Cc1ccccc1CNc1ncnc2c1ncn2[C@@H]1O[C@H](C(=O)NCCN)[C@@H](O)[C@H]1O` [Adenosine analog, 14], the Ki on Adenosine receptor A2a [1] was 55.9 µM; on Adenosine receptor A3, more than 10 µM; on Adenosine receptor A1, more than 10 µM. Also, the EC50 on Adenosine receptor A2b is more than 1 µM.
For the molecule `CNC(=O)[C@H]1O[C@@H](n2cnc3c(NCCN)ncnc32)[C@H](O)[C@@H]1O` [Adenosine analog, 5], the inhibition constant Ki is more than 100 µM at Adenosine receptor A2a [2], more than 100 µM on Adenosine receptor A2a [1], 24.6 µM on Adenosine receptor A3 and 0.775 µM at Adenosine receptor A1. This molecule displayed an EC50 on Adenosine receptor A2b of more than 10 µM.
Regarding `NCCCNC(=O)[C@H]1O[C@@H](n2cnc3c(N)ncnc32)[C@H](O)[C@@H]1O` [Adenosine analog, 8], the Ki was more than 10 µM at Adenosine receptor A2a [1], more than 10 µM on Adenosine receptor A3 and more than 100 µM at Adenosine receptor A1. The EC50 on Adenosine receptor A2b was more than 10 µM.
